Data set [1] concerns Epidermal growth factor receptor (Homo sapiens), P04626+P00533+Q15303+P21860 [L858R,T790M,C797S]. The experiment in a line: Inhibition of EGFR L858R/T790M/[…] mutant in mouse starved BaF3 cells assessed as reduction in ERK phosphorylation incubated for 120 mins followed by EGF stimulation for 15 mins by Western blot analysis. The class given is cell-based. The settings on record: time 135.0 min, DDE = dose-dependent effect. In general terms: In western blotting, separated proteins are transferred to a membrane and probed.

For data set [2], the system named is BaF3. The experiment in a line: Inhibition of EGFR 19del/T790M/[…] mutant in mouse starved BaF3 cells assessed as reduction in ERK phosphorylation incubated for 120 mins followed by EGF stimulation for 15 mins by Western blot analysis. The class given is cell-based. The settings on record: time 135.0 min, DDE = dose-dependent effect.
The test system of data set [3] is Epidermal growth factor receptor (Homo sapiens), P04626+P00533+Q15303+P21860 [L858R,T790M,C797S]. The experiment in a line: Inhibition of EGFR L858R/T790M/[…] mutant in mouse starved BaF3 cells assessed as reduction in EGFR phosphorylation incubated for 120 mins followed by EGF stimulation for 15 mins by Western blot analysis. The class given is cell-based. The settings on record: time 135.0 min, DDE = dose-dependent effect.

A short description of data set [4]: Cytotoxicity against mouse IL-3 dependent BaF3 cells assessed as inhibition of cell growth incubated for 72 hrs by CCK-8 assay. The class given is toxicity, cell-based. Conditions: BaF3 cells (IL-3 dependent). A general note: Tetrazolium assays rely on reduction of a dye to a coloured formazan, in cell work by metabolically active cells.
In data set [5] the target is Epidermal growth factor receptor (Homo sapiens, UniProt P00533). Nature of the data set: Inhibition of wild type EGFR (unknown origin) by ELISA. In general terms: ELISA stands for enzyme-linked immunosorbent assay.
The test system of data set [6] is A-431. Nature of the data set: Antiproliferative activity against human A-431 cells harboring wild type EGFR assessed as reduction in cell viability incubated for 72 hrs by CCK-8 assay. Conditions: A-431, 72 h. The class given is functional, cell-based.
In data set [7] the test system is BaF3. Nature of the data set: Inhibition of EGFR 19del/T790M/[…] mutant in mouse starved BaF3 cells assessed as reduction in EGFR phosphorylation incubated for 120 mins followed by EGF stimulation for 15 mins by Western blot analysis. The class given is cell-based. The settings on record: time 135.0 min, DDE = dose-dependent effect.
For data set [8], the system named is BaF3. Nature of the data set: Antiproliferative activity against mouse BaF3 cells harboring EGFR 19 del/T790M/C797S mutant assessed as reduction in cell viability incubated for 72 hrs by CCK8 assay. The class given is functional, cell-based. Conditions: BaF3, 72 h.
In data set [9] the test system is Epidermal growth factor receptor (Homo sapiens), P00533 [UNDEFINED MUTATION]. The experiment in a line: Inhibition of EGFR 19 del/T790M/C797S mutant in human starved osimertinib-resistant PC-9 cells assessed as reduction in ERK phosphorylation incubated for 120 mins followed by EGF stimulation for 15 mins by Western blot analysis. The class given is cell-based. Conditions: time 135.0 min, DDE = dose-dependent effect.

Data set [10] shares this test system. The experiment in a line: Inhibition of EGFR 19 del/T790M/C797S mutant in human starved osimertinib-resistant PC-9 cells assessed as reduction in EGFR phosphorylation incubated for 120 mins followed by EGF stimulation for 15 mins by Western blot analysis. The class given is cell-based. Conditions: time 135.0 min, DDE = dose-dependent effect.
For data set [11], the target named is Epidermal growth factor receptor (Homo sapiens, UniProt P00533, C797S/L858R/T790M). Nature of the data set: Inhibition of EGFR L858R/T790M/C797S mutant (unknown origin) by ELISA.
In data set [12] the test system is BaF3. Nature of the data set: Antiproliferative activity against mouse BaF3 cells stably expressing EGFR L858R/T790M/C797S mutant assessed as inhibition of cell growth incubated for 72 hrs by CCK-8 assay. The settings on record: BaF3, 72 h. The class given is functional, cell-based.
The test system of data set [13] is PC-9. Nature of the data set: Antiproliferative activity against human osimertinib-resistant PC-9 cells harboring EGFR 19 del/T790M/C797S mutant assessed as reduction in cell viability incubated for 72 hrs by CCK-8 assay. The class given is functional, cell-based. The settings on record: PC-9, 72 h.

For orientation: IC50 means the point on the concentration scale where inhibition reaches its midpoint.

Sequence of Epidermal growth factor receptor (Homo sapiens), P00533 [UNDEFINED MUTATION] (P00533 whole entry, looked up, stated change not applied): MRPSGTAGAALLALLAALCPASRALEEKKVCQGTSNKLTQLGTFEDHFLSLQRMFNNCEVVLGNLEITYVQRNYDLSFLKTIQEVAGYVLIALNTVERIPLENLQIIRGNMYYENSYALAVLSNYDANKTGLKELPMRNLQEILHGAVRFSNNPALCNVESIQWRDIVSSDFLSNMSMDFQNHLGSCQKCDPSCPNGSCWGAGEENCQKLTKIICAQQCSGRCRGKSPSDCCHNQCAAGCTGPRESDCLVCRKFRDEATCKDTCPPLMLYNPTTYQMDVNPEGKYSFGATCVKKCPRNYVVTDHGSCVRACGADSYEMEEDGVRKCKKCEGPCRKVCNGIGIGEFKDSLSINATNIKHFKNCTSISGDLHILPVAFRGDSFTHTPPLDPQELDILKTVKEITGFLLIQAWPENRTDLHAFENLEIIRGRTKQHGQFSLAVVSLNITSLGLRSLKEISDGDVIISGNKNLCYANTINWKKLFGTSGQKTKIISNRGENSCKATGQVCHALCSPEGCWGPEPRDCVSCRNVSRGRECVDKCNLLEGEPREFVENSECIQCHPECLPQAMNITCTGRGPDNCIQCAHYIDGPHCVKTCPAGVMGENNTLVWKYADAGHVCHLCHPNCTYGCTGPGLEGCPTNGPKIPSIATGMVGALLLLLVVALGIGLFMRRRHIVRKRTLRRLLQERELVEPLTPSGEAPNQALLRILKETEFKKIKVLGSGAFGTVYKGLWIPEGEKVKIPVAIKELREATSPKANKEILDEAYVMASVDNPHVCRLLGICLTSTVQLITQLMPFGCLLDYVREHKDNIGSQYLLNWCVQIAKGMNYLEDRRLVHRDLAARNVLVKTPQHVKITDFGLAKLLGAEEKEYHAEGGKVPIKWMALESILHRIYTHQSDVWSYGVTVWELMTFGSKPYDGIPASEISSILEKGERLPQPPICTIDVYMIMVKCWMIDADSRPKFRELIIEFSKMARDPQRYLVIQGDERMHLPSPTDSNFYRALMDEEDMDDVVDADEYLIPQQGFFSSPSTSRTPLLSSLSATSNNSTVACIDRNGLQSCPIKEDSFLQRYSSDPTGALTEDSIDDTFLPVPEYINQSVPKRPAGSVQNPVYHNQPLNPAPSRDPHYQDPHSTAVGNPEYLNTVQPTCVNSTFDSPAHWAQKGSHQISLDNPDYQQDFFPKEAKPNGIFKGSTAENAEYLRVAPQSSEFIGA
Sequence of Epidermal growth factor receptor (Homo sapiens, UniProt P00533, C797S/L858R/T790M) (P00533 25-1210 T790M/C797S/L858R limits assumed): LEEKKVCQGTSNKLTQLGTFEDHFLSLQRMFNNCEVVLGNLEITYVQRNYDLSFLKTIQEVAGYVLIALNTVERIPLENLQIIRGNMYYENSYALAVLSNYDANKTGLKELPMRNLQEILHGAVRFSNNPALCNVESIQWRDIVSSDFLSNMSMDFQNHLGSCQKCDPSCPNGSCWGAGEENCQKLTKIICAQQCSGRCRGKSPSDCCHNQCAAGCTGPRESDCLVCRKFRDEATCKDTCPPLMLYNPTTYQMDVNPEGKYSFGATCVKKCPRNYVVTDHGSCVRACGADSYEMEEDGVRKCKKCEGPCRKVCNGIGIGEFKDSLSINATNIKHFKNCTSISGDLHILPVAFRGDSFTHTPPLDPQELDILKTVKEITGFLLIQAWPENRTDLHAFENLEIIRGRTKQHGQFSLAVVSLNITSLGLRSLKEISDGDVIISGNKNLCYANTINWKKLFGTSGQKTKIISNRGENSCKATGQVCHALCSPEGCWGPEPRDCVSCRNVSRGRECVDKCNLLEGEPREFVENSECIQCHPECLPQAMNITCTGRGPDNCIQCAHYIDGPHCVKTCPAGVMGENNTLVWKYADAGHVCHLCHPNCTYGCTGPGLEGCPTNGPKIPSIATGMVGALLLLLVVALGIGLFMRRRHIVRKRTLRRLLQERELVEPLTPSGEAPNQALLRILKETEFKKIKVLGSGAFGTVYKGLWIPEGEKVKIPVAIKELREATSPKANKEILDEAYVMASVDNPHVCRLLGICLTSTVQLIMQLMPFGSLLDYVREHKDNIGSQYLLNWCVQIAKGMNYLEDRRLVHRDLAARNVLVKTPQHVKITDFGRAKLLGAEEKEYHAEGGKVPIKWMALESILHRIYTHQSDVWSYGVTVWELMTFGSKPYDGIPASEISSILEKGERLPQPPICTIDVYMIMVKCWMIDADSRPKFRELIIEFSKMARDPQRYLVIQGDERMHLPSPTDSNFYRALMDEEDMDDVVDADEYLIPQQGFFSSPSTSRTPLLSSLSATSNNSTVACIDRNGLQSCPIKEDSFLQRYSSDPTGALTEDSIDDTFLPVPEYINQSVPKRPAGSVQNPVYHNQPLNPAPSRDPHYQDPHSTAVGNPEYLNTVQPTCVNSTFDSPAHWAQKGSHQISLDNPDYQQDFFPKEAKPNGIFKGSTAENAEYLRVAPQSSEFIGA
Sequence of Epidermal growth factor receptor (Homo sapiens, UniProt P00533) (P00533 whole entry): as the sequence (P00533 whole entry, looked up, stated change not applied) above

`CCS(=O)(=O)n1cc2c3ccc(cc31)OCCCCCCOc1cc(c(C)cc1N1CCOCC1)Nc1ncc(Cl)c-2n1`: the inhibition entry in data set [1], in data set [2], in [3], in data set [7], in [9] and in data set [10] was “Dde” in each case. In addition, the IC50 at 72 h in data set [4] came out at 2080 nM. Moreover, the concentration for half-maximal inhibition (IC50) came to 308 nM in [5]; 2000 nM in data set [6]; 52 nM in [8]; 23.6 nM in data set [11]; 36 nM in data set [12]; 644 nM in data set [13].
